23 compounds from patent publication US8324250B2 (Hoffmann-La Roche Inc., priority 2009, dated 2012) can be followed below.

Structures are written as SMILES.

The test concerns the target T1, recombinant human NK3 receptor (Homo sapiens, UniProt P29371).
T1 construct: expressed in transfected cells; host or cells: HEK293 cells (transient expression), membranes
T1 sequence (P29371 1-465): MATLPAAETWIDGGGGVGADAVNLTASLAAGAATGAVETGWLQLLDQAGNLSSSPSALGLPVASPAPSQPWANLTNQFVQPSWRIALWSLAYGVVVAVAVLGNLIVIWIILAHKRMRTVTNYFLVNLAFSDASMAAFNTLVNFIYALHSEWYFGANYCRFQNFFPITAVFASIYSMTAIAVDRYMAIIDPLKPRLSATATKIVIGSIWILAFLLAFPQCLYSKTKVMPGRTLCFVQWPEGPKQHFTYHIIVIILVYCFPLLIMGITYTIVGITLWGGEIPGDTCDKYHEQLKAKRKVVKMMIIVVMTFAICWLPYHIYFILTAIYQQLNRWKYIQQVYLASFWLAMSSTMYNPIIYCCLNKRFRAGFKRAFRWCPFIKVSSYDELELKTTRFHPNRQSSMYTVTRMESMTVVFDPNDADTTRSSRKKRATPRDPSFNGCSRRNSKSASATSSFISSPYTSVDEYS
The test can be described thus: [3H]SR142801 competition binding assay. The following applies: membranes from HEK293 cells transiently expressing recombinant human NK3 receptor; [3H]SR142801 radioligand; 75 min at RT; Ki by Cheng-Prussoff; read-out: Data Ki (hNK-3 receptor affinity). How it is done:
[^3H]SR142801 Competition Binding Assay
hNK3 receptor binding experiment were performed using [^3H]SR142801 (Catalog No. TRK1035, specific activity: 74.0 Ci/mmol, Amersham, GE Healthcare UK limited, Buckinghamshire, UK) and membrane isolated from HEK293 cells transiently expressing recombinant human NK3 receptor. After thawing, the membrane homogenates were centrifuged at 48,000×g for 10 min at 4° C., the pellets were resuspended in the 50 mM Tris-HCl, 4 mM MnCl2, 1 μM phosphoramidon, 0.1% BSA binding buffer at pH 7.4 to a final assay concentration of 5 μg protein/well. […] At the end of the incubation, membranes were filtered onto unitfilter (96-well white microplate with bonded GF/C filter preincubated 1 h in 0.3% PEI+0.3% BSA, Packard BioScience, Meriden, Conn.) with a Filtermate 196 harvester (Packard BioScience) and washed 4 times with ice-cold 50 mM Tris-HCl, pH 7.4 buffer. Nonspecific binding was measured in the presence of 10 μM SB222200 for both radioligands. The radioactivity on the filter was counted (5 min) on a Packard Top-count microplate scintillation counter with quenching correction after addition of 45 μl of microscint 40 (Can berra Packard S. A., Zurich, Switzerland) and shaking for 1 h. Inhibition curves were fitted according to the Hill equation: y=100/(1+(x/IC50)^nH), where nH=slope factor using Excel-fit 4 software (Microsoft). IC50 values were derived from the inhibition curve and the affinity constant (Ki) values were calculated using the Cheng-Prussoff equation Ki═IC50/(1+[L]/KD) where [L] is the concentration of radioligand and KD is its dissociation constant at the receptor, derived from the saturation isotherm. All experiments were performed in duplicate and the mean±standard error (SEM) of the individual Ki values was calculated.

As a reminder, the Ki is a dissociation constant, usually derived from enzyme kinetics or from competition with a known ligand. In the case of `CC(=O)c1ccc(-c2ccc(C(=O)N3CCC(C(=O)N[C@@H](C)c4ccccc4)(c4ccccc4)CC3)cc2)cc1` [Example 59, 1-(4′-Acetyl-biphenyl-4-carbonyl)-4-phenyl-piperidine-4-carboxylic acid ((S)-1-phenyl-ethyl)-amide], the Ki was determined as 37 nM.
On to `C[C@H](NC(=O)C1(c2ccccc2)CCN(C(=O)c2ccc(-c3ccc(N)cc3)cc2)CC1)c1ccccc1` [Example 64, 1-(4′-Amino-biphenyl-4-carbonyl)-4-phenyl-piperidine-4-carboxylic acid ((S)-1-phenyl-ethyl)-amide], for which the Ki came to 72.7 nM.
Next, `C[C@H](NC(=O)C1(c2ccccc2)CCN(C(=O)c2ccc(N3CCS(=O)(=O)CC3)nc2)CC1)c1ccccc1` [Example 98, 1-[6-(1,1-Dioxo-1λ6-thiomor-pholin-4-yl)-pyridine-3-carbonyl]-4-phenyl-piperidine-4-carboxylic acid ((S)-1-phenyl-ethyl)-amide]: 33.6 nM; `Cc1noc(C2CCN(C(=O)N3CCC(C(=O)N[C@@H](C)c4ccc(F)cc4)(c4ccccc4)CC3)CC2)n1` [Example 221, 1-[4-(3-Methyl-[1,2,4]oxadiazol-5-yl)-piperidine-1-carbonyl]-4-phenyl-piperidine-4-carboxylic acid [(S)-1-(4-fluoro-phenyl)-ethyl]-amide]: 11.7 nM; `O=C(c1ccc(-c2ccc(F)cc2)cc1)N1CCC(C(=O)NCc2ccc(F)cc2)(c2ccc(F)cc2)CC1` [Example 136, 1-(4′-Fluoro-biphenyl-4-carbonyl)-4-(4-fluoro-phenyl)-piperidine-4-carboxylic acid 4-fluoro-benzylamide]: 54.9 nM.
Next, `O=C(c1ccc(N2CCCCC2=O)cc1)N1CCC(C(=O)N[C@H](c2cccc(F)c2)C2CC2)(c2ccc(F)cc2)CC1` [Example 198, 4-(4-Fluoro-phenyl)-1-[4-(2-oxo-piperidine-1-yl)-benzoyl]-piperidine-4-carboxylic acid [(S)-cyclopropyl-(3-fluoro-phenyl)-methyl]-amide]: 21.5 nM; `C[C@H](NC(=O)C1(c2ccccc2)CCN(C(=O)N2CCN(c3ccc(F)cc3)CC2)CC1)C1CCCCC1` [Example 233, 1-[4-(4-Fluoro-phenyl)-piperazine-1-carbonyl]-4-phenyl-piperidine-4-carboxylic acid ((S)-1-cyclohexyl-ethyl)-amide]: 5.3 nM.
As to `C[C@H](NC(=O)C1(c2ccccc2)CCN(C(=O)c2csc(-c3cccnc3)n2)CC1)c1ccccc1` [Example 28, 4-Phenyl-1-(2-pyridin-3-yl-thiazole-4-carbonyl)-piperidine-4-carboxylic acid ((S)-1-phenyl-ethyl)-amide], the Ki came to 76.2 nM.
As for `C[C@H](NC(=O)C1(c2ccc(F)cc2)CCN(C(=O)c2ccc(N3CCS(=O)(=O)CC3)cc2)CC1)C1CCCCC1` [Example 91, 1-[4-(1,1-Dioxo-1λ6 thiomor-pholin-4-yl)-benzoyl]-4-(4-fluoro-phenyl)-piperidine-4-carboxylic acid ((S)-1-cyclohexyl-ethyl)-amide], the Ki came to 7.6 nM.
The same measure for `Cc1noc(-c2ccc(C(=O)N3CCC(C(=O)N[C@@H](C)c4ccccc4)(c4ccccc4)CC3)cc2)n1` [Example 43, 1-[4-(3-Methyl-[1,2,4]oxa-diazol-5-yl)-benzoyl]-4-phenyl-piperidine 4-carboxylic acid ((S)-1-phenyl-ethyl)-amide]: 3.2 nM; for `C[C@H](NC(=O)C1(c2ccccc2)CCN(C(=O)c2ccc(-c3cccnc3)cc2)CC1)c1ccccc1` [Example 53, 4-Phenyl-1-(4-pyridin-3-yl-benzoyl)-piperidine-4-carboxylic acid ((S)-1-phenyl-ethyl)-amide]: 23.2 nM; for `C[C@H](NC(=O)C1(c2ccccc2)CCN(C(=O)c2cnc(-c3ccccc3)nc2)CC1)c1ccccc1` [Example 52, 4-Phenyl-1-(2-phenyl-pyrimidine-5-carbonyl)-piperidine-4-carboxylic acid ((S)-1-phenyl-ethyl)-amide]: 24.1 nM.
Next, `Cc1noc(-c2ccc(C(=O)N3CCC(C(=O)N[C@@H](c4ccc(F)cc4)C(F)(F)F)(c4ccc(F)cc4)CC3)cc2)n1` (racemic) [Example 202, 4-(4-Fluoro-phenyl)-1-[4-(3-methyl-[1,2,4]oxadiazol-5-yl)-benzoyl]-piperidine-4-carboxylic acid [(SR)-2,2,2-trifluoro-1-(4-fluoro-phenyl)-ethyl]-amide]: 6.8 nM; `C[C@H](NC(=O)C1(c2ccccc2)CCN(C(=O)N2CCN(c3ccc(F)cc3)CC2)CC1)c1ccc(F)cc1` [Example 203, 1-[4-(4-Fluoro-phenyl)-piperazine-1-carbonyl]-4-phenyl-piperidine-4-carboxylic acid [(S)-1-(4-fluoro-phenyl)-ethyl]-amide]: 8.7 nM; `C[C@H](NC(=O)C1(c2ccc(F)cc2)CCN(C(=O)c2ccc(-c3ccc(F)cc3)cc2)CC1)c1ccc(F)cc1` [Example 89, 1-(4′-Fluoro-biphenyl-4-carbonyl)-4-(4-fluoro-piperidine-phenyl)-4-carboxylic acid [(S)-1-(4-fluoro-phenyl)-ethyl]-amide]: 18.3 nM.
With `Cc1noc(-c2ccc(C(=O)N3CCC(C(=O)N[C@@H](C)c4ccc(F)cc4)(c4ccccc4)CC3)cc2)n1` [Example 76, 1-[4-(3-Methyl-[1,2,4]oxa-diazol-5-yl)-benzoyl]-4-phenyl-piperidine-4-carboxylic acid [(S)-1-(4-fluoro-phenyl)-ethyl]-amide], the Ki worked out at 2.9 nM.
`Cc1noc(-c2ccc(C(=O)N3CCC(C(=O)N[C@@H](C)c4ccc(C(F)(F)F)cc4)(c4ccccc4)CC3)cc2)n1` [Example 114, 1-[4-(3-Methyl-[1,2,4]oxadiazol-5-yl)-benzoyl]-4-phenyl-piperidine-4-carboxylic acid [(S)-1-(4-trifluoromethyl-phenyl)-ethyl]-amide]: the inhibitory constant (Ki) is 90.5 nM.
For `Cc1noc(-c2ccc(C(=O)N3CCC(C(=O)N[C@@H](C)c4ccc(F)cc4)(c4ccc(F)cc4)CC3)cc2)n1` [Example 88, 4-(4-Fluoro-phenyl)-1-{4-(3-methyl-[1,2,4]oxa-diazol-5-yl)-benzoyl] piperidine-4-carboxylic acid [(S)-1-(4-fluoro-phenyl)-ethyl]-amide], the inhibitory constant (Ki) was 6.2 nM.
For the compound `Cc1noc(-c2ccc(C(=O)N3CCC(C(=O)NC(C)c4ccc(F)c(C(F)(F)F)c4)(c4ccc(F)cc4)CC3)cc2)n1` (centres unmarked) [Example 162, 4-(4-Fluoro-phenyl)-1-[4-(3-methyl-[1,2,4]oxadiazol-5-yl)-benzoyl]-piperidine-4-carboxylic acid [1-(4-fluoro-3-trifluoromethyl-phenyl)-ethyl]-amide], the inhibitory constant (Ki) is 75 nM.
Take `C[C@H](NC(=O)C1(c2ccc(F)cc2)CCN(C(=O)c2ccc(-c3ccc(F)cc3)cc2)CC1)C1CCCCC1` [Example 92, 1-(4′-Fluoro-biphenyl-4-carbonyl)-4-(4-fluoro-phenyl)-piperidine-4-carboxylic acid ((S)-1-cyclohexyl-ethyl)-amide]: the Ki came to 5.1 nM.
Take `Cc1nc(-c2ccc(C(=O)N3CCC(C(=O)N[C@@H](C)c4ccccc4)(c4ccccc4)CC3)cc2)cs1` [Example 68]: the Ki was determined as 20.9 nM.
As to `N#Cc1ccc(N2CCC(C(=O)N3CCC(C(=O)NC(c4ccc(F)cc4)C(F)(F)F)(c4ccc(F)cc4)CC3)CC2)nc1` (centres unmarked) [Example 154, 1-(5′-Cyano-3,4,5,6-tetrahydro-2H-[1,2′]bipyridinyl-4-carbonyl)-4-(4-fluoro-phenyl)-piperidine-4-carboxylic acid [2,2,2-trifluoro-1-(4-fluoro-phenyl)-ethyl]-amide], the Ki turned out to be 75 nM.
The same measure for `CC[C@H](NC(=O)C1(c2ccccc2)CCN(C(=O)c2ccc(N3CCS(=O)(=O)CC3)cc2)CC1)c1ccccc1` [Example 84, 1-[4-(1,1-Dioxo-1λ6-thiomor-pholin-4-yl)-benzoyl]-4-phenyl-piperidine-4-carboxylic acid ((S)-1-phenyl-propyl)-amide]: 2.8 nM.
